B1: recombinant bovine growth hormone: recombinant bovine growth hormone injected in sheep (cited Ph.D. thesis) (protein, UniProt P01246 27-217, looked up)
Somatotropin: AFPAMSLSGLFANAVLRAQHLHQLAADTFKEFERTYIPEGQRYSIQNTQVAFCFSETIPAPTGKNEAQQKSDLELLRISLLLIQSWLGPLQFLSRVFTNSLVFGTSDRVYEKLKDLEEGILALMRELEDGTPRAGQILKQTYDKFDTNMRSDDALLKNYGLLSCFRKDLHKTETYLRVMKCRRFGEASCAF

Experiments:
[1] = Visceral organ weight of treated mice; assay type: in vivo, swiss-webster mice
Protocol: (§1) Two month old male swiss-webster mice obtained from Charles River Laboratory were subcutaneously injected in the post-scapula region once a day for three days with one of the following treatments: (1) Saline treatment: 0.25 ml of sterile physiological saline (0.9% saline) (n=9 mice); (2) Peptide YY (PYY) treatment: 300 μg per kilogram body weight of Peptide YY in 0.25 ml sterile physiological saline solution (n=6 mice); (c) Somatostatin treatment: 120 μg per kilogram body weight of somatostatin in 0.25 ml sterile physiological saline solution (n=6 mice); or (4) Transforming Growth Factor alpha (TGFα) treatment: 300 μg per kilogram body weight of TGFα in 0.25 ml sterile physiological saline solution (n=6 mice).
After the treated mice were sacrificed by cervical dislocation as described in Example 2, the visceral organs were dissected out and the liver, stomach, kidneys, colon and caecum of each mouse was weighed. The kidneys of the PYY treatment group were heavier than those of other treatment groups for unknown reasons.

[2] = system: jejunal glucose transport (S-GLT1 transporter); assay: Jejunal glucose transport ([3H]3-O-methyl-D-glucose uptake by jejunal rings of treated mice, with and without phlorizin); assay type: in vivo, swiss-webster mice; conditions: for Glucose Transport, Total / Glucose Transport, Active / Glucose Transport, Passive: mid-jejunal rings of treated mice; for Glucose Transport, Total: 37° C. without phlorizin minus 4° C. with phlorizin; for Glucose Transport, Active: difference of 3OMG accumulation with and without phlorizin, 37° C.; for Glucose Transport, Passive: with phlorizin, 37° C. minus 4° C.
Protocol: as §1
A sample of mid-jejunal tissue was dissected out of each of the small intestines removed in Example 2. As described below, each glucose transport assay was replicated three times per mouse, and an assay to measure non-specific binding was replicated twice per mouse. Thus each mid-jejunal sample (one from each mouse) was cut into eight one millimeter rings.
The assay for glucose transport was a modification of the assay validated by Black, Comp. Biochem Physiol. 90A:379 (1988) to measure glucose transport in embryonic chick duodenum. Additional details of the present method as modified for mouse intestine are discussed in Bird et al., J. Nutr. 124:231 (1994), and the method is validated for mice in Bird et al., Nutr. Research, 14:411 […]. The transport buffer utilized for jejunal samples was similar to that described by Black (1988) but also contained 0.5 mmol/L 3-O-methyl-D-glucose (3 OMG), 0.5 mmol/L B-hydroxybutyrate, and 2.5 mmol/L glutamine. The assay was started by transferring intestinal rings preincubated at 37° C. for 5 minutes in transport buffer to beakers containing 28 MBq/L of [^3 H]3 OMG in 2 ml of buffer. To differentiate active from passive transport, phlorizin (phloretin-2'-β-D-glucoside; Sigma Chemicals, St. Louis, Mo.) was utilized. Phlorizin is a specific inhibitor of the S-GLT1 transporter (a sodium dependent active transporter) located on the luminal surface of absorptive epithelium (see Brot-Laroche and Alvarado, Mechanisms of sugar transport across the intestinal brush border membrane, IN: Intestinal Transport: Fundamental and Comparative Aspects, Gilles-Baillin and Gilles (Eds.), Springer-Verlag, Berlin (1983)). The S-GLT1 transporter is one of a family of transporter proteins, and actively transports glucose.
Uptake of [^3 H]3 OMG was stopped after 5 minutes by rinsing samples in 3 ml of ice-cold mannitol (300 mmol/L). Labelled substrate was extracted from the tissue into 2 mL of trichloroacetic acid (25 g/L) at 37° C. for 60 minutes in a shaking water bath. Samples were removed, blotted and weighed. The extract was centrifuged at 2000×g for 15 minutes at 4° C., and then 1 ml of the decanted supernatant was dispersed in 5 ml of Ecolite (+) scintillation cocktail (ICN Biomedicals, Cleveland, Ohio) and counted for 10 minutes in a scintillation counter. Duplicate aliquots (100 uL) of incubation media containing approximately 2.8 kBq [^3 H]3 OMG (both with and without phlorizin) and a blank were counted with each set of samples.
Active glucose transport was calculated as the difference between 3 OMG accumulation in media with and without phlorizin. Passive transport was calculated as the difference between 3 OMG accumulation in the presence of phlorizin at 37° C. and 4° C. Total transport is the difference between 3 OMG accumulation at 37° C., in the absence of phlorizin, and accumulation at 4° C. in the presence of phlorizin. Transport data are presented as pmol glucose/(min-mg wet tissue). Fasting body weight of the mice was used to express data on a body weight basis.

[3] = system: jejunal oxygen consumption; assay: Jejunal oxygen consumption of treated mice, with and without ouabain; assay type: in vivo, swiss-webster mice; conditions: jejunum of treated mice, 37° C.; for Oxygen Consumption, With Ouabain, Dry / Oxygen Consumption, Without Ouabain, Dry: dry tissue; for Oxygen Consumption, With Ouabain, Wet / Oxygen Consumption, Without Ouabain, Wet: wet tissue
Protocol: as §1
Measurement of oxygen consumption rate was determined as described by McBride and Milligan, Br. J. Nutr., 53:605 (1985) for ovine duodenal mucosa, and as described by Bird et al., J. Nutr. 124:231 (1994) for mice jejunum, using an oxygen monitor and an incubation bath fitted with an O2 electrode (Yellow Springs Instruments, Yellow Springs, Ohio, USA). Adjacent jejunal ring samples (two from each mouse jejunum) were prepared by rinsing in ice-cold HEPES transport buffer to remove digesta residues. The rate of O2 uptake of the duplicate jejunal samples, constantly stirred in 4 ml of media at 37° C., was electronically recorded. After 3 minutes, 100 uL of 12.6 mmol/L ouabain (Sigma Chemical), a specific inhibitor of Na+, K+-ATPase, was added to the chamber and oxygen consumption was plotted for 3 minutes. Dry matter content of the tissue pieces was then measured by drying the jejunal samples at 80° C. in a forced draught oven for 48 hours.

[4] = system: Na-dependent active glucose uptake; assay: Energetic efficiency of Na-dependent active glucose uptake; assay type: in vivo, swiss-webster mice; conditions: compared with saline control; 1 nmol O2 assumed = 5 nmol ATP; FIG. 1
Protocol: The energetic efficiency of Na-dependent active glucose uptake in the PYY treated mice and the saline control treated mice was calculated, assuming that consumption of 1 nmol of O2 (as measured in Example 5, above) indicated expenditure of 5 nmol of ATP (Gill et al., J. Nutr. 119:1287-1299 (1989).

[5] = system: water and electrolyte absorption from the small intestine; conditions: unfed dogs, peripheral infusion; cited from earlier work
[6] = system: sodium-dependent duodenal active transport; conditions: sheep injected with recombinant bovine growth hormone; cited from earlier work
[7] = mice, s.c. once a day for three days

Row | Molecule | Glucose Transport, Total [2] [pmol/min/mg tissue] | Glucose Transport, Active [2] [pmol/min/mg tissue] | Glucose Transport, Passive [2] [pmol/min/mg tissue] | Oxygen Consumption, With Ouabain, Dry [3] [µL/min/g] | Oxygen Consumption, Without Ouabain, Dry [3] [µL/min/g] | Oxygen Consumption, With Ouabain, Wet [3] [µL/min/g] | Oxygen Consumption, Without Ouabain, Wet [3] [µL/min/g] | Organ Weight, Caecum ([1]; mouse, in vivo, sc) [mg] | Organ Weight, Colon ([1]; mouse, in vivo, sc) [mg] | Organ Weight, Kidneys ([1]; mouse, in vivo, sc) [mg] | Organ Weight, Liver ([1]; mouse, in vivo, sc) [mg] | Organ Weight, Stomach ([1]; mouse, in vivo, sc) [mg] | further results
1 | C[C@H](N)C(=O)NCC(=O)N[C@H]1CSSC[C@@H](C(=O)O)NC(=O)[C@H](CO)NC(=O)[C@H]([C@@H](C)O)NC(=O)[C@H](Cc2ccccc2)NC(=O)[C@H]([C@@H](C)O)NC(=O)[C@H](CCCCN)NC(=O)[C@H](Cc2c[nH]c3ccccc23)NC(=O)[C@H](Cc2ccccc2)NC(=O)[C@H](Cc2ccccc2)NC(=O)[C@H](CC(N)=O)NC(=O)[C@H](CCCCN)NC1=O [Somatostatin, somatostatin] | 371 | 303 | 67 | 181.29 | 224.77 | 35.13 | 43.62 |  |  |  |  |  | Organ Weight, Caecum [1, 7]: 156 mg; Organ Weight, Colon [1, 7]: 316 mg; Organ Weight, Kidneys [1, 7]: 534 mg; Organ Weight, Liver [1, 7]: 1441 mg; Organ Weight, Stomach [1, 7]: 232 mg
2 | PYY: 36 amino acid hormonal peptide, produced by "L type" endocrine cells; member of the pancreatic polypeptide family [Peptide YY] | 431 | 369 | 63 | 194.22 | 253.93 | 36.54 | 47.71 | 134 | 315 | 468 | 1274 | 230 | metabolic cost of total glucose uptake (total nmol ATP expended per nmol of 3OMG uptake) [4]: less; water and electrolyte absorption from the small intestine [5]: dose-dependent increase; increase in active glucose transport expressed per unit of body weight (Table 2 footnote) ([2]; compared to saline control): 46; increase in active glucose transport expressed per unit of fasting body weight ([2]; compared to the saline control group): 46%; active glucose transport, comparison with saline control group ([2]; per milligram of intestinal tissue): statistically significant increase
3 | Transforming Growth Factor alpha [TGFα] | 410 | 347 | 64 | 179.01 | 238.76 | 36.03 | 47.96 | 156 | 379 | 522 | 1442 | 243 | 
4 | B1 |  |  |  |  |  |  |  |  |  |  |  |  | increase of sodium-dependent duodenal active transport of glucose [6]: approximately 60%; increase of transport of proline [6]: approximately 30%

Source: patent US5912227A, “Method of enhancing nutrient uptake” (North Carolina State University, priority 1995, dated 1999)
